Results taken from US7309484B2, “Compositions and methods for screening antibacterial compounds” (priority 2003, dated 2007).
Values after ≈ are worked out from the molar mass of the structure shown. Read-outs that look alike come from different tables or passages of the source. Bridge positions count the residues as written; N and C are the ends. Square brackets hold non-standard residues; d marks the D form. Peptide text beside a SMILES is read from it. * marks the point of attachment. Ileψ(thiazoline)Cys = CC[C@H](C)[C@H](N)C1=N[C@H](C(=O)*)CS1; dOrn = NCCC[C@@H](N)C(=O)O

Experiments:
Type in all cases: cell-based, Bacillus subtilis
[1] = tested on: liaH expression (liaH::pMUTIN, strain BFS2469); assay: Quantitative β-galactosidase assay, strain BFS2469; settings: bacitracin 100 μg/mL, 30 minutes
Method: Specifically, cultures of B. subtilis strain BFS2469 (liaH::pMUTIN) and BFS2470 (liaI::pMUTIN) were grown in LB medium to midlog phase, 2 mL for the un-induced control sample were harvested, and the remaining culture was induced with the three antibiotics for 30 minutes, before the cells of the induced sample were harvested. All samples were taken in duplicate from two independent cultures and the standard deviation is indicated by error bars.
Measurement of induction by β-galactosidase assays: Cells were inoculated from fresh overnight LB-plates and grown in LB-medium at 37° C. with aeration until they reached an O.D.600=0.45. 2 mL of cultures were harvested (un-induced control) and the cell pellets were shock frozen and kept at −70° C. The cultures were induced by addition of antibiotics to a final concentration of: bacitracin (100 μg/mL), tunicamycin (50 μg/mL) or vancomycin (2 μg/mL) and incubated for additional 30 min at 37° C. 2 mL of the cultures were harvested as described above (induced sample). The pellets were re-suspended in 1 mL of working buffer and assayed for β-galactosidase activity as described with normalization to cell density (Miller, 1972, the entire teaching of which is incorporated herein by reference).

[2] = tested on: B. subtilis strain BFS2470; assay: Concentration-dependent induction/killing experiments
Method: Concentration-dependent induction/killing experiments were performed for bacitracin, nisin, ramoplanin and vancomycin as shown in FIG. 7. In all four cases the induction of liaI occurred in a concentration-dependent manner (FIG. 7a), reaching a maximum at an antibiotic concentration of about 10 μg/ml (1 μg/mL for vancomycin). The time of antibiotic addition is indicated by an arrow. The antibiotic concentrations affecting the induction of PliaI according to the β3-galactosidase assay are indicated by white symbols. The corresponding concentrations are: bacitracin ([…]), nisin (50, 70 and 100 μg/ml), ramoplanin (20, 50 and 100 μg/mL) and vancomycin (5, 10, 50 and 100 μg/mL).
This finding correlates well with the bactericidal effects of these antibiotics as inferred from the dramatic decrease of optical density: there is little effect of bacitracin and vancomycin on cell growth during the first 30-60 min after addition even at high concentrations (FIG. 7b).
The cultures were incubated with aeration at 37° C.

[3] = tested on: B. subtilis CU1065 and isogenic deletion mutants; assay: Minimal inhibitory concentration (MIC), microtiter-plate assay; settings: for MIC: Bacillus subtilis
Method: Since B. subtilis is closely related to the bacitracin-producing strains, it seemed likely that a similar system as described for B. licheniformis could exist in CU1065. The identification of two loci encoding ABC transporters that are under the bacitracin-inducible control of a two-component system supported this hypothesis. […] All strains were grown in microtiter-plates for 4 hours after dilution into LB medium containing the indicated concentrations of bacitracin. The experiment was done in triplicate and a representative result is shown. Strains used were: CU1065 (black squares), ‘bacR’ (HB0927, open diamonds), ‘bacAB’ (HB0928, black diamonds), ‘sigM’ (HB0031, open circles), ‘bcrC’ HB0106 (closed circles), ‘bcrC/bacAB’ (HB0937, black triangle). Compare also with Table 1.
Determination of the minimal inhibitory concentration (MIC): MIC-assays were performed in microtiter plates using a ‘Tecan Spectra Rainbow’ microtiter plate reader. […] Tenfold dilution of these cultures were inoculated in a total volume of 200 μl/well with increasing quantities of bacitracin, ranging from 0.01 to 1000 μg/mL (final concentration). The plates were incubated at 37° C. and the O.D.600 was read after 4 hours, when cultures had reached their final cell density. All experiments were performed in triplicate.

[4] = tested on: B. subtilis wild-type strain CU1065 gene expression; assay: DNA microarray analysis of the bacitracin stimulon, wild-type CU1065; settings: wild type CU1065, 5 min after bacitracin
From the text: The bacitracin stimulon of B. subtilis was examined using global transcriptome analysis. […] Under most conditions tested, about 60-70 genes were induced greater than 5-fold. […] The scatter-plot represents the data sets obtained for strain HB0920 (yvqH was still detected as bacitracin-inducible due to the presence of a remaining region near the 5′-end of the gene). […] Members of the σ^M (white open squares) and σ^B (small black triangles) regulon are highlighted. All other gene signals are represented as small gray diamonds. […]
The bacitracin stimulon in the wild-type strain CU1065 was qualitatively similar to that of the liaH-deletion mutant HB0920 as judged by a comparison of the induction profile at 5 min, as illustrated in FIG. 8. […] Relative hybridization intensities are plotted for genes as measured for CU1065 (x axis) and HB0920 (y axis). […]
This locus is therefore a candidate for negative regulation by LiaH. In addition, expression of the bacAB and yvcRS loci was threefold greater in CU1065 than in the liaH mutant when both were measured 5 min after bacitracin treatment. […]
Each slide contains 9220 features corresponding to duplicate copies of each open reading frame, additional PCR products for some ORFs, rRNA genes, and other controls. […] Fluorescent signal intensity data was quantified using ArrayVision software (Molecular Dynamics) and normalized to the total detectable mRNA. […]

CC[C@H](C)[C@H](N)C1=N[C@H](C(=O)N[C@@H](CC(C)C)C(=O)N[C@H](CCC(=O)O)C(=O)N[C@H](C(=O)N[C@H]2CCCCNC(=O)[C@H](CC(N)=O)NC(=O)[C@@H](CC(=O)O)NC(=O)[C@H](Cc3cnc[nH]3)NC(=O)[C@@H](Cc3ccccc3)NC(=O)[C@H]([C@@H](C)CC)NC(=O)[C@@H](CCCN)NC2=O)[C@@H](C)CC)CS1 [Bacitracin] ({Ileψ(thiazoline)Cys}-L[dE]IK[dOrn]I[dF]H[dD]N; lactam 4-C)
fold increase in liaH expression [1]: 90 fold
lacZ-expression at higher concentration ([2]; FIG. 7a, in words): remained elevated
effect on cell growth / optical density ([2]; high concentrations, FIG. 7b, in words): little effect
antibiotic concentration at maximum induction of liaI ([2]; β-galactosidase assay after 30 min, 0.01 to 100 μg/ml tested): about 10 μg/ml
MIC ([3]; 4 h, read-out: Bacitracin MIC, mutant in bacAB (ytsCD), LB, 4 hours): 10 µg/mL (≈ 7.03 µM)
MIC ([3]; 4 h, read-out: Bacitracin MIC, mutant in bcrC, LB, 4 hours): 25 µg/mL (≈ 17.6 µM)
MIC ([3]; read-out: bacitracin-resistance (MIC), bcrC/bceAB double mutant (HB0937)): 2.5 µg/mL (≈ 1.76 µM)
MIC ([3]; read-out: bacitracin-resistance (MIC), wild type strain (CU1065)): 500 µg/mL (≈ 351 µM)
reduction in MIC compared to CU1065 ([3]; bceAB deletion): 50 fold
reduction in MIC compared to CU1065 ([3]; bceR deletion): 50 fold
decrease of bacitracin-resistance compared to the wild type strain ([3]; bcrC/bceAB double mutant): 200 fold
induction of yhcYZ/yhdA locus [4]: not induced
